Source: ChEMBL document CHEMBL3808354, “Synthesis and biological evaluation of oxindole linked indolyl-pyrimidine derivatives as potential cytotoxic agents” (Bioorg Med Chem Lett, 2016)
The source made the active and inactive calls. The rule behind the calls is not given here.

Experiments:
[1] = Cytotoxicity against human PA1 cells assessed as decrease in cell viability after 48 hrs by MTT assay; type: functional, cell-based; details: PA-1, 48 h
[2] = Cytotoxicity against human U87MG cells assessed as decrease in cell viability after 48 hrs by MTT assay; type: functional, cell-based, U-87MG ATCC; details: U-87 MG
[3] = system: LNCaP; assay: Cytotoxicity against human LNCAP cells assessed as decrease in cell viability after 48 hrs by MTT assay; type: functional, cell-based
[4] = system: MCF7; assay: Cytotoxicity against human MCF7 cells assessed as decrease in cell viability after 48 hrs by MTT assay; type: functional, cell-based; details: MCF7, 48 h
[5] = Cytotoxicity against human RWPE1 cells assessed as decrease in cell viability after 48 hrs by MTT assay; type: cell-based; details: RWPE-1, 48 h
[6] = Selectivity ratio of IC50 for human RWPE1 cells to IC50 for human LNCAP cells; type: ADME, cell-based; details: RWPE1 cells and LNCaP cells, read-out: Ratio IC50
[7] = Cell cycle arrest in human PA1 cells assessed as accumulation at G2/M phase at 2.5 uM after 24 hrs by propidium iodide staining based flow cytometry (reference value: 15.72%); type: functional; details: PA-1
[8] = Cell cycle arrest in human PA1 cells assessed as accumulation at G2/M phase after 24 hrs by propidium iodide staining based flow cytometry; type: functional; details: PA-1
[9] = system: PA-1; assay: Induction of morphological changes in human PA1 cells assessed as cell shrinking at 1 to 2.5 uM after 24 hrs by inverted phase contrast microscopy; type: functional, cell-based
[10] = system: PA-1; assay: Induction of morphological changes in human PA1 cells assessed as cell wall deformation at 1 to 2.5 uM after 24 hrs by inverted phase contrast microscopy; type: functional, cell-based
[11] = system: PA-1; assay: Antiproliferative activity against human PA1 cells assessed as reduction in viable cells at 1 to 2.5 uM after 24 hrs by inverted phase contrast microscopy; type: functional, cell-based
[12] = system: PA-1; assay: Induction of cell death in human PA1 cells assessed as cell shrinking at 1 to 2.5 uM after 24 hrs by acridine orange/ethidium bromide staining based fluorescence microscopy; type: functional
[13] = system: PA-1; assay: Induction of cell death in human PA1 cells assessed as membrane blebbing at 1 to 2.5 uM after 24 hrs by acridine orange/ethidium bromide staining based fluorescence microscopy; type: functional
[14] = system: PA-1; assay: Induction of cell death in human PA1 cells assessed as chromatin condensation at 1 to 2.5 uM after 24 hrs by acridine orange/ethidium bromide staining based fluorescence microscopy; type: functional
[15] = system: PA-1; assay: Induction of cell death in human PA1 cells assessed as apoptotic body formation at 1 to 2.5 uM after 24 hrs by acridine orange/ethidium bromide staining based fluorescence microscopy; type: functional
[16] = system: PA-1; assay: Induction of apoptosis in human PA1 cells assessed as viable cells at 1 uM after 24 hrs by annexin V-FITC/propidium iodide staining based flow cytometry (reference value: 97.01%); type: functional; details: PA-1, 24 h, read-out: Activity
[17] = system: PA-1; assay: Induction of apoptosis in human PA1 cells assessed as early apoptotic cells at 1 uM after 24 hrs by annexin V-FITC/propidium iodide staining based flow cytometry (reference value: 1.65%); type: functional
[18] = system: PA-1; assay: Induction of apoptosis in human PA1 cells assessed as late apoptotic cells at 1 uM after 24 hrs by annexin V-FITC/propidium iodide staining based flow cytometry (reference value: 1.24%); type: functional
[19] = system: PA-1; assay: Induction of apoptosis in human PA1 cells assessed as necrotic cells at 1 uM after 24 hrs by annexin V-FITC/propidium iodide staining based flow cytometry (reference value: 0.10%); type: functional
[20] = system: PA-1; assay: Induction of apoptosis in human PA1 cells assessed as viable cells at 2.5 uM after 24 hrs by annexin V-FITC/propidium iodide staining based flow cytometry (reference value: 97.01%); type: functional; details: PA-1, 24 h, read-out: Activity
[21] = system: PA-1; assay: Induction of apoptosis in human PA1 cells assessed as early apoptotic cells at 2.5 uM after 24 hrs by annexin V-FITC/propidium iodide staining based flow cytometry (reference value: 1.65%); type: functional
[22] = system: PA-1; assay: Induction of apoptosis in human PA1 cells assessed as late apoptotic cells at 2.5 uM after 24 hrs by annexin V-FITC/propidium iodide staining based flow cytometry (reference value: 1.24%); type: functional
[23] = system: PA-1; assay: Induction of apoptosis in human PA1 cells assessed as necrotic cells at 2.5 uM after 24 hrs by annexin V-FITC/propidium iodide staining based flow cytometry (reference value: 0.10%); type: functional
[24] = system: PA-1; assay: Induction of apoptosis in human PA1 cells after 24 hrs by annexin V-FITC/propidium iodide staining based flow cytometry; type: functional, cell-based
[25] = Cell cycle arrest in human PA1 cells assessed as accumulation at G0/G1 phase at 1 uM after 24 hrs by propidium iodide staining based flow cytometry (reference value: 73.23%); type: functional; details: PA-1
[26] = Cell cycle arrest in human PA1 cells assessed as accumulation at S phase at 1 uM after 24 hrs by propidium iodide staining based flow cytometry (reference value: 10.25%); type: functional; details: PA-1
[27] = Cell cycle arrest in human PA1 cells assessed as accumulation at G2/M phase at 1 uM after 24 hrs by propidium iodide staining based flow cytometry (reference value: 15.72%); type: functional; details: PA-1
[28] = Cell cycle arrest in human PA1 cells assessed as accumulation at G0/G1 phase at 2.5 uM after 24 hrs by propidium iodide staining based flow cytometry (reference value: 73.23%); type: functional; details: PA-1
[29] = Cell cycle arrest in human PA1 cells assessed as accumulation at S phase at 2.5 uM after 24 hrs by propidium iodide staining based flow cytometry (reference value: 10.25%); type: functional; details: PA-1

Cn1cc(/C=C2/C(=O)Nc3ccccc32)c2cc(Nc3nccc(-c4ccc(C(F)(F)F)cc4)n3)ccc21
IC50 [1]: 63.9 µM
IC50 [2]: 26 µM
IC50 [3]: > 100 µM
IC50 [4]: 65.2 µM

COc1ccc(-c2ccnc(Nc3ccc4c(c3)c(/C=C3/C(=O)Nc5ccccc53)cn4C)n2)cc1
IC50 [1]: > 100 µM
IC50 [2]: > 100 µM
IC50 [3]: > 100 µM
IC50 [4]: > 100 µM

Cn1cc(/C=C2/C(=O)Nc3ccccc32)c2cc(Nc3nccc(-c4ccc(O)cc4)n3)ccc21
IC50 [1]: 9.27 µM
IC50 [2]: 13.2 µM
IC50 [3]: 10.8 µM
IC50 [4]: 39.6 µM
IC50 [5]: 58.4 µM

Cn1cc(/C=C2/C(=O)Nc3ccccc32)c2cc(Nc3nccc(-c4cccnc4)n3)ccc21
IC50 [1]: 18.1 µM
IC50 [2]: 14.8 µM
IC50 [3]: 14.2 µM
IC50 [4]: 46.6 µM
IC50 [5]: 69.8 µM

O=c1[nH]cc(F)c(=O)[nH]1 [FLUOROURACIL]
IC50 [1]: 8.51 µM
IC50 [2]: 15.5 µM
IC50 [3]: 47.2 µM
IC50 [4]: 32.3 µM

Cn1cc(/C=C2/C(=O)Nc3ccccc32)c2cc(Nc3nccc(-c4ccccc4)n3)ccc21
IC50 [1]: 17.3 µM
IC50 [2]: 14.1 µM
IC50 [3]: 13.4 µM
IC50 [4]: 42.9 µM
IC50 [5]: 95.6 µM

Cn1cc(/C=C2/C(=O)Nc3ccccc32)c2cc(Nc3nccc(-c4ccc(F)cc4)n3)ccc21
IC50 [1]: 31.8 µM
IC50 [2]: 16.4 µM
IC50 [3]: 16.3 µM
IC50 [4]: 48.1 µM
IC50 [5]: 168 µM
selectivity ratio [6]: 10.3

Cn1cc(/C=C2/C(=O)Nc3ccccc32)c2cc(Nc3nccc(-c4cccs4)n3)ccc21
IC50 [1]: 7.94 µM
IC50 [2]: 7.18 µM
IC50 [3]: 10.3 µM
IC50 [4]: 30.8 µM
IC50 [5]: 64.9 µM

Cn1cc(/C=C2/C(=O)Nc3ccccc32)c2cc(Nc3nccc(-c4ccc(Cl)cc4)n3)ccc21
Activity [7]: 31.1%
Activity [8]: Dose-dependent effect
IC50 [1]: 2.43 µM
IC50 [2]: 5.82 µM
IC50 [3]: 6.59 µM
IC50 [4]: 23.5 µM
IC50 [5]: 41.1 µM
Activity [9]: Active
Activity [10]: Active
Activity [11]: Active
Activity [12]: Active
Activity [13]: Active
Activity [14]: Active
Activity [15]: Active
viability at 1 µM [16]: 75.5%
Activity [17]: 16.68%
Activity [18]: 7.42%
Activity [19]: 0.4%
viability at 2.5 µM [20]: 51.8%
Activity [21]: 25.18%
Activity [22]: 20.01%
Activity [23]: 3.03%
Activity [24]: Dose-dependent effect
Activity [25]: 67.8%
Activity [26]: 13.6%
Activity [27]: 17.6%
Activity [28]: 57.1%
Activity [29]: 10.8%

Cn1cc(/C=C2/C(=O)Nc3ccccc32)c2cc(Nc3nccc(-c4ccc(Cl)cc4Cl)n3)ccc21
IC50 [1]: > 100 µM
IC50 [2]: 36.8 µM
IC50 [3]: > 100 µM
IC50 [4]: > 100 µM

CCN(CC)CCNC(=O)c1c(C)[nH]c(/C=C2\C(=O)Nc3ccc(F)cc32)c1C [SUNITINIB]
IC50 [1]: 7.97 µM
IC50 [2]: 59.8 µM
IC50 [3]: 12.6 µM
IC50 [4]: 23.8 µM
IC50 [5]: 23 µM

Cc1ccc(-c2ccnc(Nc3ccc4c(c3)c(/C=C3/C(=O)Nc5ccccc53)cn4C)n2)cc1
IC50 [1]: > 100 µM
IC50 [2]: > 100 µM
IC50 [3]: > 100 µM
IC50 [4]: > 100 µM
